What was measured:
HT29 cells = test: IL-1β-induced IL-8 release in HT29 cells; format: cell-based; settings: Homo sapiens, HT-29; IL-1β-stimulated HT29 cells; read-out: IC50 Values for Inhibition of Cytokine Release HT29 cells IL-8
Procedure: HT29 cells, a human colon adenocarcinoma cell line, are plated in a 96 well plate (24 hrs) and pre-treated with compounds at the desired concentration for 2 hours before addition of 5 ng/mL of IL-1β (Abcam) for 24 hours. Supernatants are harvested for IL-8 quantification by Sandwich ELISA (Duo-set, R&D System). The IC50 is determined from the dose response curve.

[1] = Hydrolytic stability study; format: physicochemical; settings: DMSO/water (3:1), 1 mg/mL, experiment in which Example 2 was tested
Procedure: Chemical stability of compounds of the invention was assessed in a mixture of DMSO and water (3:1) at a test compound concentration of 1 mg/mL
General HPLC Procedure • Agilent, Waters X-Select C18, 2.5 μm, 4.6×30 mm column, 4 min method, 5-95% • MeCN/water (0.1% formic acid). • Flow rate 2.5 ml/min. • Column Oven Temperature 40° C. • Detection 254 nm.
Sample Preparation • A 1.0 mg sample of test compound was dissolved in 1 mL of DMSO/water (3:1) and the resulting mixture was stirred at rt overnight.
Recording Stability • A 50 μL aliquot of the test solution was removed and analysed in duplicate by 5 μL HPLC injections. The peak area for the test compound (taken to be 100% product, 0% degradation) was recorded following manual integration of the corresponding UV trace. The area retention time was also recorded. • The test solution was heated to 60° C. internal temperature (65° C. block temperature), with stirring, and timing commenced once the target temperature had been reached. After 5 and 24 h, samples were removed and analysed by HPLC (5 μL injections). In all cases, 5 μL injections were used and the samples analysed in duplicate. • The peak areas for the test compounds were recorded at both subsequent timepoints and the % decomposition calculated from the % change in peak area over time.

Syk [2] = biological target: T1, Syk (Homo sapiens, UniProt P43405); test: Syk enzyme inhibition, FRET Z-LYTE; format: biochemical
T1 construct: purchased Invitrogen
Procedure: (§1) The enzyme inhibitory activities of compounds disclosed herein are determined by FRET using synthetic peptides labelled with both donor and acceptor fluorophores (Z-LYTE, Invitrogen Ltd., Paisley, UK).
(§2) The inhibitory activities of compounds of the invention against c-Src and Syk enzymes (Invitrogen), are evaluated in a similar fashion to that described hereinabove. The relevant enzyme (3000 ng/mL or 2000 ng/mL respectively, 2.5 μL) is incubated with the test compound (either 4 μg/mL, 0.4 μg/mL, 0.04 μg/mL, or 0.004 μg/mL, 2.5 μL each) for 2 hr at RT. The FRET peptides (8 μM, 2.5 μL), and appropriate ATP solutions (2.5 μL, 800 μM for c-Src, and 60 μM ATP for Syk) are then added to the enzymes/compound mixtures and incubated for 1 hr. Development reagent (protease, 5 μL) is added for 1 hr prior to detection in a fluorescence microplate reader (Varioskan® Flash, ThermoFisher Scientific).
(§3) In all cases, the site-specific protease cleaves non-phosphorylated peptide only and eliminates the FRET signal. Phosphorylation levels of each reaction are calculated using the ratio of coumarin emission (donor) over fluorescein emission (acceptor), for which high ratios indicate high phosphorylation and low ratios indicate low phosphorylation levels.

PBMCs [3] = test: LPS-induced IL-8 release in PBMC cells; format: cell-based; settings: Homo sapiens, LPS-stimulated PBMCs, read-out: IC50 Values for Inhibition of Cytokine Release PBMCs IL-8
Method in brief: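 Healthy-donor PBMCs isolated by density gradient were pretreated with compound for 2 h, then stimulated with 1 ng/mL LPS (E. coli 0111:B4) for 24 h at 37° C., 5% CO2. IL-8 and TNFα in supernatants measured by sandwich ELISA.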

Syk [4] = biological target: T1, Syk; test: KINOMEscan dissociation constant, Syk; format: binding
Procedure: (§4) Kinase enzyme binding activities of compounds disclosed herein may be determined using a proprietary assay which measures active site-directed competition binding to an immobilized ligand (Fabian, M. A. et al., Nature Biotechnol., 2005, 23:329-336). These assays may be conducted by DiscoverX (formerly Ambit; San Diego, Calif.). The percentage inhibition produced by incubation with a test compound may be calculated relative to the non-inhibited control.

p38 MAPKα [5] = biological target: T2, p38 MAPKα (Homo sapiens, UniProt Q16539); test: p38 MAPKα enzyme inhibition (Method 2), FRET Z-LYTE; format: biochemical
T2 construct: purchased Invitrogen
T2 sequence (Q16539 whole entry): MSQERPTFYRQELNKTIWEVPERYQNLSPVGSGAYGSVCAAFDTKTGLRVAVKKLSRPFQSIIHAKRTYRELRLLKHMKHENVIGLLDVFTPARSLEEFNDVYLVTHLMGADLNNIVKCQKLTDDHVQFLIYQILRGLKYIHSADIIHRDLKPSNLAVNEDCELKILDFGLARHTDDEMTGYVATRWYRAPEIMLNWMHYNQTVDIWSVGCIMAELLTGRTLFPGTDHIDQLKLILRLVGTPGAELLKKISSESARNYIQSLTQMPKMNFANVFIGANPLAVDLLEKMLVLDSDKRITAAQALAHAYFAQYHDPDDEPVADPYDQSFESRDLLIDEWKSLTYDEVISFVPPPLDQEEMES
Procedure: as §1
The inhibitory activities of test compounds against the p38 MAPKα isoform (MAPK14: Invitrogen), are evaluated indirectly by determining the level of activation/phosphorylation of the down-stream molecule, MAPKAP-K2. The p38 MAPKα protein (80 ng/mL, 2.5 μL) is mixed with the test compound (2.5 μL of either 4 μg/mL, 0.4 μg/mL, 0.04 μg/mL or 0.004 μg/mL) for 2 hr at RT. […] The mixture is incubated for 1 hr at RT. Development reagent (protease, 5 μL) is added for 1 hr prior to detection in a fluorescence microplate reader (Varioskan® Flash, ThermoFisher Scientific).
This method follows the same steps as Method 1 above, but utilises a higher concentration of the p38 MAPKα protein (2.5 μL of 200 ng/mL protein instead of 2.5 μL of 80 ng/mL protein) for mixing with the test compound.
as §3

PBMCs [6] = test: IL-2 release in CD3/CD28 stimulated PBMC cells; format: cell-based; settings: Homo sapiens, read-out: IC50 Values for Inhibition of Cytokine Release PBMCs IL-2
Procedure: (§5) PBMCs from healthy subjects are separated from whole blood using a density gradient (Lymphoprep, Axis-Shield Healthcare). Cells are added to a 96 well plate pre-coated with a mixture of CD3/CD28 monoclonal antibodies (0.3 μg/mL eBioscience and 3 μg/mL BD Pharmingen respectively). Compound at the desired concentration is then added to the wells and the plate left for 3 days under normal tissue culture conditions. Supernatants are harvested and IL-2 and IFN gamma release determined by Sandwich ELISA (Duo-set, R&D System). The IC50 is determined from the dose response curve.

c-Src = biological target: T3, c-Src (Homo sapiens, UniProt P12931); test: c-Src enzyme inhibition, FRET Z-LYTE; format: biochemical
T3 construct: purchased Invitrogen
T3 sequence (P12931 whole entry): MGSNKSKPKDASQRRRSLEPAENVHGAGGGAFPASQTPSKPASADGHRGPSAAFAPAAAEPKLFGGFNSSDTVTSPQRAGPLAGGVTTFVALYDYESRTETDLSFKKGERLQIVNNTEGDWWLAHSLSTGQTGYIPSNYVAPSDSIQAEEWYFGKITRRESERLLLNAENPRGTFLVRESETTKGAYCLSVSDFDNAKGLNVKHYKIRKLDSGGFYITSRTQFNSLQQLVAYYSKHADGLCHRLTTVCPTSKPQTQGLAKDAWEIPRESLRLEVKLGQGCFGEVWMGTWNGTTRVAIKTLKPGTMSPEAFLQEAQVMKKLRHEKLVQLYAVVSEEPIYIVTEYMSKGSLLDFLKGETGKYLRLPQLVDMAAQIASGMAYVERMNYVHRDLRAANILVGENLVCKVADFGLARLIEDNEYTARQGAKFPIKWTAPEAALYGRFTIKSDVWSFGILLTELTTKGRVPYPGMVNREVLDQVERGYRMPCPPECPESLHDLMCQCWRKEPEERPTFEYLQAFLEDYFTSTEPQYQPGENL
Procedure: as §1, §2, §3

GSK3α = biological target: T4, GSK3α (Homo sapiens, UniProt P49840); test: GSK3α enzyme inhibition (Method 2), FRET Z-LYTE; format: biochemical
T4 construct: purchased Invitrogen
T4 sequence (P49840 whole entry): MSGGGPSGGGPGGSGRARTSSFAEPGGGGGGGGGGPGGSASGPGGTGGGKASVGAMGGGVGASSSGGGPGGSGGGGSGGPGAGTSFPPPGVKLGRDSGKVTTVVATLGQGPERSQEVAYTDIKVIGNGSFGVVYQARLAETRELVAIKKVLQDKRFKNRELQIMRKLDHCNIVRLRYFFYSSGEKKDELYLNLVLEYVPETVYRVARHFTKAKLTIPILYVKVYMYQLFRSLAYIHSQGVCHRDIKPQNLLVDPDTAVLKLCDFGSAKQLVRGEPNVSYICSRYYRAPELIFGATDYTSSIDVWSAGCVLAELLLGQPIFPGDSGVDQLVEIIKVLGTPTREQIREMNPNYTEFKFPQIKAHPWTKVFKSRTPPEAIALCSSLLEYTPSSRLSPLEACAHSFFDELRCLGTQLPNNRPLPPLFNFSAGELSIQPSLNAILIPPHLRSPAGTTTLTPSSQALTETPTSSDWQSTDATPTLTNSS
Procedure: as §1
The inhibitory activities of compounds of the invention against the GSK 3α enzyme isoform (Invitrogen), are evaluated by determining the level of activation/phosphorylation of the target peptide. The GSK3-α protein (500 ng/mL, 2.5 μL) is mixed with the test compound (2.5 μL at either 4 μg/mL, 0.4 μg/mL, 0.04 μg/mL, or 0.004 μg/mL) for 2 hr at RT. The FRET peptide (8 μM, 2.5 μL), which is a phosphorylation target for GSK3α, and ATP (40 μM, 2.5 μL) are then added to the enzyme/compound mixture and the resulting mixture incubated for 1 hr. Development reagent (protease, 5 μL) is added for 1 hr prior to detection in a fluorescence microplate reader (Varioskan® Flash, ThermoFisher Scientific).
as §3
This method follows the same steps as Method 1 above, but utilises a shorter period of mixing of the test compound (105 minutes instead of 2 hours) with the GSK3-α protein.

p38 MAPKα [7] = biological target: T2, p38 MAPKα; test: KINOMEscan dissociation constant, p38 MAPKα; format: binding
Procedure: as §4

PBMCs [8] = test: IFN gamma release in CD3/CD28 stimulated PBMC cells; format: cell-based; settings: Homo sapiens, read-out: IC50 Values for Inhibition of Cytokine Release PBMCs IFNγ
Procedure: as §5

Lck = biological target: T5, Lck (Homo sapiens, UniProt P06239); test: KINOMEscan dissociation constant, Lck; format: binding
T5 construct: purchased DiscoveRx Corporation (LeadHunter Discover Services, KINOMEscan)
T5 sequence (P06239 whole entry): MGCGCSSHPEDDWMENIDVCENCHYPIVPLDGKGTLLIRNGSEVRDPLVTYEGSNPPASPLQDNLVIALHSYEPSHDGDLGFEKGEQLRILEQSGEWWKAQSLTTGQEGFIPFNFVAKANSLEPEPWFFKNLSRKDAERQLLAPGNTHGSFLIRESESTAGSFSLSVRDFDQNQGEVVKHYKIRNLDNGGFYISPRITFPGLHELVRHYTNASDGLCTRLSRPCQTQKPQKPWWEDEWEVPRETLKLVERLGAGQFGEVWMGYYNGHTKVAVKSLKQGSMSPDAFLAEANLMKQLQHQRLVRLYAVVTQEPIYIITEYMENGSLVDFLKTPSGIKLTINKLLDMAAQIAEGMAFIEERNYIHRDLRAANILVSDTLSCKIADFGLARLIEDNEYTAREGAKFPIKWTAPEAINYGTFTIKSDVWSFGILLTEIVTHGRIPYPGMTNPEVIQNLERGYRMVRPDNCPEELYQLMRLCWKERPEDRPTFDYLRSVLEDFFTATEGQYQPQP
Procedure: as §4

Jurkat cells = test: Cell cytotoxicity assay (Jurkat cell viability); format: cell-based, human; settings: 24 hours
Procedure: 1×10^5 Jurkat cells (immortalised human T lymphocytes) are added to the appropriate number of wells of a 96 well plate in 100 μL of media (RPMI supplemented with 10% foetal bovine serum). 1 μL of DMSO control (final concentration 1.0% v/v) or test compound (final concentration 20, 5 or 1 μg/mL) is added to the wells and incubated at 37° C., 5% CO2. After 24 hours, the plate is centrifuged at 1200 rpm for 3 minutes and the supernatant discarded. Cells are then resuspended in 150 μL (final concentration 7.5 μg/mL) of propidium iodide (PI) in PBS and incubated at 37° C., 5% CO2 for 15 minutes. After 15 minutes, cells are analysed by flow cytometry (BD accuri) using the FL3 window. The % viability is calculated as the % of cells that are PI negative in the test wells normalised to the DMSO control.

PBMCs [9] = test: Cell mitosis assay in PBMCs; format: cell-based, human
Procedure: Peripheral blood mononucleocytes (PBMCs) from healthy subjects are separated from whole blood (Quintiles, London, UK) using a density gradient (Histopaque®-1077, Sigma-Aldrich, Poole, UK). The PBMCs (3 million cells per sample) are subsequently treated with 2% PHA (phytohaemagglutinin, Sigma-Aldrich, Poole, UK) for 48 hr, followed by a 20 hr exposure to varying concentrations of test compounds. At 2 hr before collection, PBMCs are treated with demecolcine (0.1 μg/mL; Invitrogen, Paisley, UK) to arrest cells in metaphase. To observe mitotic cells, PBMCs are permeabilised and fixed by adding Intraprep (50 μL; Beckman Coulter, France), and stained with anti-phospho-histone 3 (0.26 ng/L; #9701; Cell Signalling, Danvers, Mass.) and propidium iodide (1 mg/mL; Sigma-Aldrich, Poole, UK) as previously described (Muehlbauer P. A. and Schuler M. J., Mutation Research, 2003, 537:117-130). Fluorescence is observed using an ATTUNE flow cytometer (Invitrogen, Paisley, UK), gating for lymphocytes.

Row | IC50 (HT29 cells) [µM] | % Parent Remaining ([1]; 60° C., 300 min) [%] | % Parent Remaining ([1]; 60° C., 1440 min) [%] | % Parent Remaining ([1]; time 0 min) [%] | IC50 (Syk [2]) [µM] | Kd (Syk [4]) [µM] | IC50 (p38 MAPKα [5]) [µM] | IC50 (c-Src) [µM] | IC50 (GSK3α) [µM] | Kd (p38 MAPKα [7]) [µM] | Kd (Lck) [µM] | Structure (SMILES) | IC50 (PBMCs [3]) [µM] | IC50 (PBMCs [6]) [µM] | IC50 (PBMCs [8]) [µM] | % Viability at 1 μg/mL (Jurkat cells; 1 μg/mL) [%] | % Viability at 5 μg/mL (Jurkat cells; 5 μg/mL) [%] | % Viability at 20 μg/mL (Jurkat cells; 20 μg/mL) [%] | inhibition at 5 µg/mL (PBMCs [9]; Homo sapiens, PBMC, PBMCs, 5 μg/mL) [%] | impact on cell division (mitosis) in PBMCs, in words (PBMCs [9]; assay (g), compared with Reference Compound A)
1 | 0.0787 | 104.2 | 102.9 | 100 | > 1.25 | 0.068 | 0.032 | 0.027 | > 12.5 | 0.015 | 0.013 | COCCOCCOCCOc1cc(Nc2ncc3cc(-c4cc(C(=O)Nc5cc(C(C)(C)C)cc(NS(C)(=O)=O)c5OC)ccc4C)ccc3n2)cc(OC)c1 [Example 2, N-(5-(tert-Butyl)-2-methoxy-3-(methylsulfonamido)phenyl)-3-(2-((3-methoxy-5-(2-(2-(2-methoxyethoxy)ethoxy)ethoxy)phenyl)amino)quinazolin-6-yl)-4-methylbenzamide] | 0.026 | 0.126 | 0.0533 |  |  |  |  | 
2 |  |  |  |  | 0.781 | 0.05 | 0.012 | 0.018 | > 13.1 | 0.0039 | 0.0067 | COc1cc(Nc2ncc3cc(-c4cc(C(=O)Nc5cc(C(C)(C)C)cc(C(N)=O)c5OC)ccc4C)ccc3n2)cc(C(=O)NCCN2CCOCC2)c1 [Example 3, N-(5-(tert-Butyl)-3-carbamoyl-2-methoxyphenyl)-3-(2-((3-methoxy-5-((2-morpholinoethyl)-carbamoyl)phenyl)amino)quinazolin-6-yl)-4-methylbenzamide] | 0.008 | 0.0165 | 0.0184 | 100.4 | 82.9 | 77.5 | 66.3 | markedly less active than the Reference Compound A

Reference: patent US20170209445A1, “KINASE INHIBITORS” (Respivert Limited, priority 2014, published 2017)
